Earlier results in paper PMC8513935.

Assays:
[1] = log P octanol/water from commercial databases, averaged (the ESI); details: Octanol (wet), 25 C
[2] = experimental, compiled by the authors from the literature (the ESI cites the sources)
[3] = derived by the authors as gas->solvent minus gas->water (a hypothetical dry solvent; the ESI), not a two-phase measurement

Question: Which results are given for `O=C1CCCCC1`?
Answer: log K of transfer, water to solvent [1]: 0.81 log10 K; log K of transfer, gas to solvent ([2]; 1,2-Dichloroethane, 25 C): 4.97 log10 K; log K of transfer, gas to solvent ([2]; CCl4, 25 C): 4.57 log10 K; log K of transfer, gas to solvent ([2]; Cyclohexanone, 25 C): 4.65 log10 K; log K of transfer, gas to solvent ([2]; Hexadecane, 25 C): 3.79 log10 K; log K of transfer, gas to solvent ([2]; Hexane, 25 C): 3.65 log10 K; log K of transfer, gas to solvent ([2]; Water, 25 C): 3.6 log10 K; log K of transfer, water to solvent ([3]; 1,2-Dichloroethane, 25 C): 1.37 log10 K; log K of transfer, water to solvent ([3]; CCl4, 25 C): 0.97 log10 K; log K of transfer, water to solvent ([3]; Cyclohexanone, 25 C): 1.05 log10 K; log K of transfer, water to solvent ([3]; Hexadecane, 25 C): 0.192 log10 K; log K of transfer, water to solvent ([3]; Hexane, 25 C): 0.05 log10 K

Question: With `CCC(C)C` as the compound, how does the log K of transfer, water to solvent [1] read?
Answer: 3.19 log10 K

Question: And the log K of transfer, gas to solvent ([2]; 2-Methylpropan-2-ol, 25 C)?
Answer: 1.88 log10 K

Question: What about the log K of transfer, gas to solvent ([2]; Cyclohexanone, 25 C) of the same compound?
Answer: 1.89 log10 K

Question: And the log K of transfer, gas to solvent ([2]; Hexadecane, 25 C)?
Answer: 2.01 log10 K

Question: What about the log K of transfer, gas to solvent ([2]; Water, 25 C) of the same compound?
Answer: -1.75 log10 K

Question: And the log K of transfer, water to solvent ([3]; 2-Methylpropan-2-ol, 25 C)?
Answer: 3.63 log10 K

Question: What about the log K of transfer, water to solvent ([3]; Cyclohexanone, 25 C) of the same compound?
Answer: 3.64 log10 K

Question: What about the log K of transfer, water to solvent ([3]; Hexadecane, 25 C) of the same compound?
Answer: 3.76 log10 K

Question: Which results are given for `CCC(=O)CC`?
Answer: log K of transfer, water to solvent [1]: 0.82 log10 K; log K of transfer, gas to solvent ([2]; Cyclohexane, 25 C): 3.15 log10 K; log K of transfer, gas to solvent ([2]; Hexadecane, 25 C): 2.81 log10 K; log K of transfer, gas to solvent ([2]; Octan-1-ol, 25 C): 3.2 log10 K; log K of transfer, gas to solvent ([2]; Water, 25 C): 2.5 log10 K; log K of transfer, water to solvent ([3]; Cyclohexane, 25 C): 0.65 log10 K; log K of transfer, water to solvent ([3]; Hexadecane, 25 C): 0.311 log10 K; log K of transfer, water to solvent ([3]; Octan-1-ol(dry), 25 C): 0.7 log10 K

Question: For `Cc1cc(C)cc(O)c1`, which log K of transfer, water to solvent [1] is on record?
Answer: 2.35 log10 K

Question: And the log K of transfer, gas to solvent ([2]; CCl4, 25 C)?
Answer: 5.42 log10 K

Question: What about the log K of transfer, gas to solvent ([2]; Chlorobenzene, 25 C) of the same compound?
Answer: 5.86 log10 K

Question: And the log K of transfer, gas to solvent ([2]; Hexadecane, 25 C)?
Answer: 4.85 log10 K

Question: What about the log K of transfer, gas to solvent ([2]; Hexane, 25 C) of the same compound?
Answer: 4.96 log10 K

Question: What about the log K of transfer, gas to solvent ([2]; Water, 25 C) of the same compound?
Answer: 4.6 log10 K

Question: And the log K of transfer, water to solvent ([3]; CCl4, 25 C)?
Answer: 0.82 log10 K

Question: And the log K of transfer, water to solvent ([3]; Chlorobenzene, 25 C)?
Answer: 1.26 log10 K

Question: And the log K of transfer, water to solvent ([3]; Hexadecane, 25 C)?
Answer: 0.256 log10 K

Question: What about the log K of transfer, water to solvent ([3]; Hexane, 25 C) of the same compound?
Answer: 0.362 log10 K

Question: What does the source list for `CCC(C)CC`?
Answer: log K of transfer, water to solvent [1]: 3.6 log10 K; log K of transfer, gas to solvent ([2]; Butan-1-ol, 25 C): 2.34 log10 K; log K of transfer, gas to solvent ([2]; Hexadecane, 25 C): 2.58 log10 K; log K of transfer, gas to solvent ([2]; Pentan-1-ol, 25 C): 2.44 log10 K; log K of transfer, gas to solvent ([2]; Water, 25 C): -1.84 log10 K; log K of transfer, water to solvent ([3]; Butan-1-ol, 25 C): 4.18 log10 K; log K of transfer, water to solvent ([3]; Hexadecane, 25 C): 4.42 log10 K; log K of transfer, water to solvent ([3]; Pentan-1-ol, 25 C): 4.28 log10 K

Question: What does the source list for `CC1CCCC1`?
Answer: log K of transfer, water to solvent [1]: 3.37 log10 K; log K of transfer, gas to solvent ([2]; Heptan-1-ol, 25 C): 2.57 log10 K; log K of transfer, gas to solvent ([2]; Hexadecane, 25 C): 2.91 log10 K; log K of transfer, gas to solvent ([2]; Pentan-1-ol, 25 C): 2.57 log10 K; log K of transfer, gas to solvent ([2]; Water, 25 C): -1.17 log10 K; log K of transfer, water to solvent ([3]; Heptan-1-ol, 25 C): 3.74 log10 K; log K of transfer, water to solvent ([3]; Hexadecane, 25 C): 4.07 log10 K; log K of transfer, water to solvent ([3]; Pentan-1-ol, 25 C): 3.74 log10 K
